Legend:
[1] = tested on: Wistar rats; experiment: Hepatic and renal reactive oxygen species (DCF formation); type: in vivo; settings: rats, p.o., 14 days at 10% of LD50 (CCl4, APAP: once daily, 3 days), mean ± SEM, n = 6; for Renal ROS: kidney; for Hepatic ROS: liver
Method: (§1) For toxicity tests, acclimatized rats were randomly allocated to 12 groups (n = 12 for the control and n = 6 for the rest groups). […] Meanwhile, the aforementioned vehicles (dose volume 2 mL/kg b.w.) were administered to 3 groups. […] Upon completion of the 14-day treatments and before sample collection, the bladders of animals were emptied by gentle pressure on the lower part of the abdomen to induce urination. The animals were then housed in individual metabolic cages to collect urine for a period of 6 h and then the volume was recorded. Afterward, blood samples were obtained and the serum was separated by centrifugation at 1,620 × g for 10 min at room temperature.
Reactive oxygen species (ROS) were measured by formation of 2′,7′-dichlorofluorescein (DCF). An aliquot of 10 μL (kidney) or 5 μL (liver) of the homogenates was added to 1,940 or 1,945 μL of TRIS:HEPES (18:1) and was incubated in the presence of 50 μL of 2′,7′-dichlorofluorescein diacetate for 1 h at 37 °C. In order to quench the reaction, the mixture was chilled using an ice bath. The fluorescence was measured using a Shimadzu fluorometer (Japan; λex = 488 nm; λem = 525 nm). The results were expressed as nM DCF formed per mg protein/h.[33]
(§2) The protein concentration in homogenates was measured by the Bradford method.[29]

[2] = tested on: Wistar rats; experiment: Subacute toxicity: water and electrolyte balance (osmolality, sodium, potassium, urinary flow); type: in vivo; settings: rats, p.o., 14 days at 10% of LD50 (CCl4, APAP: once daily, 3 days); mean ± SEM, n = 6
Method: (§3) For toxicity tests, acclimatized rats were randomly allocated to 12 groups (n = 12 for the control and n = 6 for the rest groups). […] Meanwhile, the aforementioned vehicles (dose volume 2 mL/kg b.w.) were administered to 3 groups. […] The animals were then housed in individual metabolic cages to collect urine for a period of 6 h and then the volume was recorded. Afterward, blood samples were obtained and the serum was separated by centrifugation at 1,620 × g for 10 min at room temperature.
Osmolality of serum and urine were assessed (in triplicate) by using a vapor pressure osmometer (Wescor 5500, Logan, United States). U/S ratio as well as osmolar (COsm) and free water clearances were calculated via conventional equations:where UOsm and SOsm are the osmolality values (mOsm/Kg) in urine and serum, respectively, and φ is the UFR (mL/min).
(§4) The levels of sodium and potassium were measured in urine and serum using a flame photometer (Corning 400, Medfield, United States). Calculation was made of the clearance, fractional excretion, and filtered load of sodium (FLS), filtered load of potassium (FLP), and filtered load of glucose (FLG) using the conventional equations:where CX is the clearance rate of X (mL/min), CCr is the creatinine clearance rate (mL/min), UX and SX are the […] concentrations of X, respectively, φ is the UFR (mL/min), FEX is the fractional excretion (%) of X, and FLX is the filtered load of X in μEq/min (Na^+ or K^+) or mg/min (glucose).

[3] = tested on: NIH mice; experiment: Acute oral toxicity, median lethal dose (LD50); type: in vivo; settings: for Category (GHS acute oral toxicity hazard category) / Hazard statement (GHS): based on oral LD50, according to GHS [39]; for Oral LD50: female NIH mice, single oral dose, 14 days observation
Method: All treatments were administrated orally (p.o.) according to the scheme mentioned below.
Acute toxicity tests were performed in order to measure the median lethal dose (LD50). After acclimatization, mice were randomly allocated to ten groups (n = 4), including the control group (e.g. water, Tween 80, or PO) and the experimental groups, each with a single dose of one of the IMPYs at 4 levels of dose (0.5, 1.0, 2.0, and 4.0 g/kg b.w.).
Animals were food deprived overnight prior to administration of the chemical compounds or vehicles, and food was returned 4 h after dosing. Animals had access to water ad libitum throughout the study.[27]^,[28]

[4] = tested on: Wistar rats; experiment: Subacute toxicity: glomerular filtration rate (creatinine clearance) and serum creatinine; type: in vivo; settings: rats, p.o., 14 days at 10% of LD50 (CCl4, APAP: once daily, 3 days); mean ± SEM, n = 6
Method: as §3
(§5) Serum and urinary creatinine were determined by the Jaffe method. With this value, evaluation was made of the fractional excretion of sodium (FES), fractional excretion of potassium (FEP), and fractional excretion of glucose.[30]^,[31] The GFR was calculated from clearance of endogenous creatinine using the conventional equation:where GFR (CCr) is the creatinine clearance rate (mL/min); UCr and SCr are the creatinine concentrations (mg/dL) in urine and serum, respectively; and φ is the urinary flow rate (UFR) (mL/min). To avoid the error from the tubular secretion of creatinine found in males, only female animals were used.

[5] = tested on: Wistar rats; experiment: Hepatic and renal lipid peroxidation (lipid-soluble fluorescence); type: in vivo; settings: rats, p.o., 14 days at 10% of LD50 (CCl4, APAP: once daily, 3 days), mean ± SEM, n = 6; for Renal Lipoperoxidation: kidney; for Hepatic Lipoperoxidation: liver
Method: as §1
Lipid peroxidation (LPO) was evaluated by the formation of lipid-soluble fluorescence, as previously described. Briefly, kidney and liver tissues were homogenized in 3 and 5 mL of phosphate buffer (0.2 M, pH = 7.4), respectively. A volume of 1 mL (kidney) or 0.8 mL (liver) of the homogenates was added to 7 mL of chloroform-methanol (2:1, v/v), and after 15 s of vortex mixing, the resulting mixture was cooled using an ice bath for 30 min to allow for phase separation. The fluorescence of the organic phase was measured using a Shimadzu fluorometer (Japan; λex = 370 nm; λem = 430 nm), whose sensitivity was adjusted to 140 fluorescence units by using 1 μg/mL of quinine sulfate in 50 mM H2SO4. The results were expressed as relative fluorescence units per milligram of protein.[33]
as §2

[6] = tested on: Wistar rats; experiment: Subacute toxicity: serum alanine aminotransferase and alkaline phosphatase activity; type: in vivo; settings: serum; rats, p.o., 14 days at 10% of LD50 (CCl4, APAP: once daily, 3 days); mean ± SEM, n = 6
Method: as §1
The activities of serum alanine aminotransferase (ALT) and alkaline phosphatase (ALP) were measured with standard kits (RANDOX, Laboratories Ltd, UK).

[7] = tested on: renal secretory pathway of organic anions; experiment: Active tubular secretion of organic acids (PAH uptake in kidney cortex slices); type: in vivo, rats; settings: for PAH t/m ratio: kidney cortex slices, PAH 1 mM, 1 h, 25 °C, rats, p.o., 14 days at 10% of LD50 (CCl4, APAP: once daily, 3 days), mean ± SEM, n = 6; for PAH t/m ratio, change in words: versus control (2a also versus Tween 80 and 2b)
Method: as §1
p-Aminohippuric acid (PAH) was used as an indicator of the renal secretory pathway of organic anions. Kidneys were extracted and immediately submerged in Ringer solution (pH = 7.4 and mOsm = 290 ± 10 mOsm/kg) under constant bubbling with O2/CO2 (95/5%). The kidneys were decapsulated and slices of the kidney cortex were obtained, which were then incubated in Ringer solution containing PAH (1 mM) for 1 h at 25 °C under constant bubbling with O2/CO2 (95/5%). The levels of PAH were quantified with the Bratton-Marshall method and results were expressed as the PAH tissue/medium ratio (PAH t/m ratio).[31]^,[32]

[8] = tested on: Wistar rats; experiment: Subacute toxicity: serum and urine glucose, urinary protein excretion; type: in vivo; settings: rats, p.o., 14 days at 10% of LD50 (CCl4, APAP: once daily, 3 days); mean ± SEM, n = 6
Method: as §3
Serum and urine glucose concentration were calculated using GOD-PAP kits (RANDOX, Laboratories Ltd, UK). Urinary protein was quantified using the Bradford method.[29]
as §5, §4

Structure (SMILES)	Renal ROS [1] [nM de DCF/mg protein/h]	Hepatic ROS [1] [nM de DCF/mg protein/h]	Filtered Load of Potassium [2] [µEq/min]	Filtered Load of Sodium [2] [µEq/min]	Fractional Excretion of Potassium [2] [%]	Fractional Excretion of Sodium [2] [%]	Serum Osmolality [2] [mOsm/kg]	Serum Potassium [2] [mEq/L]	Serum Sodium [2] [mEq/L]	U/S Osm ratio [2]	Urinary Flow Rate [2] [µL/min]	Urinary Potassium Excretion [2] [µEq/min]	Urinary Sodium Excretion [2] [µEq/min]	Category (GHS acute oral toxicity hazard category) [3]	Hazard statement (GHS) [3]	Oral LD50 [3] [g/kg b.w.]	Glomerular Filtration Rate [4] [mL/min]	Serum Creatinine [4] [mg/dL]	Renal Lipoperoxidation [5] [URF/mg protein]	Hepatic Lipoperoxidation [5] [URF/mg protein]	further results
N#Cc1cn2ccccc2n1 [Compound 2a, imidazo[1,2-a]pyridine-2-carbonitrile]	171.33 ± 22.04	285.53 ± 42.87	5.07 ± 1.44	124.49 ± 40.90	13.55 ± 1.23	0.55 ± 0.13	291.74 ± 1.34	6.03 ± 0.31	142.94 ± 3.88	3.30 ± 0.22	6.44 ± 1.39	0.64 ± 0.16	0.51 ± 0.09	4	Harmful if swallowed	0.794	0.86 ± 0.28	0.66 ± 0.13	0.30 ± 0.02	0.71 ± 0.04	Alanine Aminotransferase [6]: 42.68 ± 2.04 U/L; Alkaline Phosphatase [6]: 104.44 ± 19.76 U/L; PAH t/m ratio [7]: 1.07 ± 0.11; PAH t/m ratio, change in words [7]: decreased; Filtered Load of Glucose [8]: 0.90 ± 0.29 mg/min; Fractional Excretion of Glucose [8]: 0.02 ± 3.9E-3%; Serum Glucose [8]: 103.46 ± 3.16 mg/dL; Urinary Glucose Excretion [8]: 136.89 ± 32.82 ng/min; Urinary Protein Excretion [8]: 0.65 ± 0.13 µg/min
O=C(O)c1nc2ccccn2c1[N+](=O)[O-] [Compound 3b, 3-nitroimidazo[1,2-a]pyridine-2-carboxylic acid]	184.33 ± 42.31	290.96 ± 40.60	4.15 ± 0.53	90.75 ± 12.03	11.63 ± 2.44	0.38 ± 0.05	293.74 ± 2.06	6.69 ± 0.40	144.61 ± 3.41	3.21 ± 0.39	3.75 ± 0.75	0.43 ± 0.07	0.34 ± 0.06	5	May be harmful if swallowed	> 2.000	0.63 ± 0.08	0.57 ± 0.12	0.44 ± 0.09	0.80 ± 0.03	Alanine Aminotransferase [6]: 32.76 ± 5.37 U/L; Alkaline Phosphatase [6]: 56.63 ± 6.67 U/L; PAH t/m ratio [7]: 1.92 ± 0.23; PAH t/m ratio, change in words [7]: decreased; Filtered Load of Glucose [8]: 0.74 ± 0.09 mg/min; Fractional Excretion of Glucose [8]: 0.04 ± 3.7E-3%; Serum Glucose [8]: 121.37 ± 8.03 mg/dL; Urinary Glucose Excretion [8]: 262.45 ± 19.41 ng/min; Urinary Protein Excretion [8]: 1.18 ± 0.23 µg/min
